{"source": "patent US20080279967A1", "about": "“Composition and method for increasing the metabolism of free fatty acids and facilitating a favorable blood lipid” (priority 2007, published 2008)", "origin": "cited, not measured here", "tested_on": "rats", "conditions": "administration to rats"}
{"smiles": "C[N+](C)(C)CCCC(=O)[O-]", "note": "[γ-butyrobetaine, 4-trimethylamniobutyrate]", "values": [{"measurement": "nitric oxide concentrations in blood", "value": "increases"}, {"measurement": "vasodilating activities", "value": "elevated"}]}
